Test results from paper PMC4778863, “A Four-Point Screening Method for Assessing Molecular Mechanism of Action (MMOA) Identifies Tideglusib as a Time-Dependent Inhibitor of Trypanosoma brucei GSK3β” (PLoS Neglected Tropical Diseases, 2016).
Where two headings read alike, the source gives them in different places.

What was measured:
TbGSK3β [1] = target: T1, TbGSK3β (Trypanosoma brucei brucei, UniProt Q388M1); experiment: biochemical; type: biochemical; conditions: for Ratio Preinc/no preinc: % inhibition at 30 min preincubation / % inhibition at 0 min preincubation at 10 μM ATP; for ATP competition following preincubation / ATP competition without preincubation: 10 μM versus 100 μM ATP; for ATP competition following preincubation: 30 min preincubation; for time dependence: effect of 30 min preincubation on TbGSK3β activity: four point MMOA assay, 10 μM and 100 μM ATP
T1 construct: Full-length TbGSK3β (Gene DB ID Tb927.10.13780); 6X His (C); made in house; host or cells: BL21 (DE3) E. coli
T1 sequence (Q388M1 1-352): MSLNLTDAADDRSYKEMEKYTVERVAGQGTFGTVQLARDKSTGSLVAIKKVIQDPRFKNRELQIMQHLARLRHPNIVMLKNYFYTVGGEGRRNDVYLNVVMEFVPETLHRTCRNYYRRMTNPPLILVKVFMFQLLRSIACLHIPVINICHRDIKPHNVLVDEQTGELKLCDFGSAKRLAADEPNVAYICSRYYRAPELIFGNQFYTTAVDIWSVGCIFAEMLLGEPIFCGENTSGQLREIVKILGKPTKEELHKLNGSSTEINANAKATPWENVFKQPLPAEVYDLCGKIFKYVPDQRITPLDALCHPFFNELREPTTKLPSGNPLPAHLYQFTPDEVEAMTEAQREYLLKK
Experimental: TbGSK3β activity was measured by following the ADP formation associated with the phosphorylation of GSM peptide and detected with ADP-Glo at 23°C. The enzyme reaction was conducted in a volume of 20 μL in a buffer containing 20 mM NaCl, 15 mM HEPES pH 7.4, 1 mM EGTA, 10 mM MgCl2, 0.02% Tween. These assays contained GSM at 10μM (approximating Km) or 80 μM (approximating Vmax). ATP was added at 10 μM and 100 μM to approximate Km and Vmax, respectively.
All reactions were incubated for 5 minutes in microcentrifuge tubes, and reactions were terminated at 80°C for 4 min. Of 20 μL reactions, 17.5 μL were transferred into 384 well-plates. Promega ADP-Glo procedures were carried out and phosphorylation measured by Luminoskan Ascent (Thermo Labsystems, Waltham MA). For pre-incubation experiments, TbGSK3β was preincubated at room temperature with inhibitor, GSM and buffer for 30 min. Inhibitors were added in DMSO to a final concentration of DMSO in the reactions of <5%. The kinase reaction was then started by adding ATP. For non-preincubation reactions, the kinase reactions were started by adding TbGSK3β to a mixture containing inhibitor, ATP, GSM and buffer. DMSO was added to all control reactions.
IC50 for inhibition TbGSK3β was determined as a function of preincubation time (Fig 3). Preincubated reactions were preincubated with inhibitor, TbGSK3β, GSM peptide, and buffer at room temperature; after 30 minutes reactions were initiated with the addition of ATP. Reactions with 0 min preincubation were initiated with the addition of TbGSK3β. Reactions were run for 5 min at room temperature, and stopped at 80°C. ADP product formation was measured by ADP-Glo kit.
Preincubated reactions were preincubated with inhibitor, TbGSK3β, GSM peptide, and buffer at room temperature; after 30 minutes reactions were initiated with the addition of ATP. Reactions with 0 min preincubation were initiated with the addition of TbGSK3β. Reactions were run for 5 min at room temperature, and stopped heat at 80°C, followed by ice bath, and ADP product formation was measured by ADP-Glo kit. All concentrations of tideglusib and controls with and without TbGSK3β were kept at 1% DMSO. Black = 30 minute preincubation Grey = 0 minute preincubation.
Time dependent inhibition was evaluated by preincubation of TbGSK3β with 60 nM tideglusib and 6 nM GW-8510 with 10μM and 100μM ATP. […] (B). […] All reactions preincubated or not preincubated with TbGSK3β for 30 min at room temperature. Experiments run with 10μM GSM peptide, 10μM ATP, and buffer. Minute preincubation (30 min) was preincubated with inhibitor, TbGSK3β, GSM peptide, and buffer. ATP was mixed to initiate reaction. No preincubation contained inhibitor, GSM peptide, ATP, and buffer. The reaction was initiated with TbGSK3β. Reactions were run at room temperature for 5 min and stopped at 80°C. ADP formed was measured by ADP-Glo kit. Values are mean +/- standard error. N = 3 for each experiment and experiments were run in duplicates. Control reactions contained DMSO and background was determined using a zero time incubation and subtracted from all reactions. Black = 30 min preincubation Grey = No preincubation.

TbGSK3β [2] = target: T1, TbGSK3β; experiment: Irreversibility: TbGSK3β activity following 100-fold dilution; type: biochemical; conditions: 100 nM inhibitor preincubated 30 min with 50 nM TbGSK3β, diluted 100 fold into 100 μM ATP, 80 μM GSM; up to 2 hr
Experimental: Tideglusib and GW8510 were evaluated for irreversibility by measuring the TbGSK3β activity following a 100-fold dilution with reaction buffer. In these experiments tideglusib and GW8510 [100 nM] were preincubated with 50 nM TbGSK3β for 30 min at which time the reaction was diluted 100 fold into a solution containing 100 μM ATP and 80 μM GSM. The activity was then measured for up to two hours (Fig 6). […] The final concentration of tideglusib and GW8510 following dilution was 1 nM.
Tideglusib [100 nM, GW8510 [100 nM] and DMSO were preincubated with 50 nM TbGSK3 for 30 min. After a 100 fold dilution activity was measured and compared to DMSO containing reaction. Data expressed percent inhibition of DMSO activity. Data represent the average of two separate experiments for GW8510 and three for tideglusib. All points in each experiment were run in duplicate.

[3] = tested on: T. brucei brucei strain 427; conditions: cited from earlier work
[4] = tested on: Bloodstream form Trypanosoma brucei; experiment: Parasite assay: trypanosome proliferation, 48 hours, Coulter Counter; type: cell-based, strain CA427; conditions: read-out: GI50 (concentration at which trypanosome proliferation was inhibited by 50%)
Trypanosomes = experiment: Trypanosome viability after short term (6 hour) exposure and wash-out; type: cell-based, Trypanosoma brucei; conditions: for trypanosome proliferation/viability after removal of drug following 6 hour exposure: drug-free medium, monitored for 44 hours
Experimental: The effect of tideglusib on trypanosome viability after short term exposure was evaluated to determine if the molecule is cidal or cytostatic.
Fig 9 Trypanosome viability after short term exposure with tideglusib. Trypanosomes (5 x 10^5/mL in HMI-9 medium) were treated with pentamidine (or water solvent control) or tideglusib (5 μM, 10 μM, or DMSO solvent control) for 6 hours (37°C, 5% CO2) and then cultured in drug-free treatment as detailed in panel (A). Trypanosome densities were determined after 6 hour treatment (B), and the drugs washed from the cells by centrifugation and resuspension in fresh medium (to a density of 0.5 x 10^5/mL). Trypanosome proliferation in the fresh medium was monitored for 44 hours (37°C, 5% CO2) (C). Error between four separate cultures are shown.

human GSK3β = tested on: human GSK3β; set-up: method as in PMID 22102280; conditions: following preincubation; read-out: IC50 against human GSK3β; cited from earlier work
[5] = set-up: method as in PMID 19523516; conditions: mice; oral administration; cited from earlier work
[6] = cited from earlier work
[7] = substrate: CC(C)C[C@H](NC(=O)[C@H](CO)NC(=O)[C@@H]1CCCN1C(=O)[C@H](CO)NC(=O)[C@@H]1CCCN1C(=O)[C@@H]1CCCN1C(=O)[C@@H](NC(=O)[C@H](CO)NC(=O)[C@H](C)NC(=O)[C@@H]1CCCN1C(=O)[C@H](CCCNC(=N)N)NC(=O)[C@H](CCCNC(=N)N)NC(=O)[C@@H](N)CCCNC(=N)N)C(C)C)C(=O)N[C@@H](CO)C(=O)N[C@@H](CCCNC(=N)N)C(=O)N[C@@H](Cc1c[nH]cn1)C(=O)N[C@@H](CO)C(=O)N[C@@H](COP(=O)(O)O)C(=O)N[C@@H](Cc1c[nH]cn1)C(=O)N[C@@H](CCC(N)=O)C(=O)N[C@@H](CCCNC(=N)N)C(=O)N[C@@H](CCCNC(=N)N)C(=O)O; experiment: purified protein, by the assay type; type: biochemical; conditions: other: substrate versus rate plots (Fig 2); pH 7.4
[8] = IC50, 10 μM ATP and 10 μM GSM, ± standard deviation, n = 3
[9] = 10 μM ATP and 10 μM GSM, ± standard deviation, n = 3, read-out: IC50
[10] = IC50 for inhibition TbGSK3β, non-preincubated reactions, 0 min preincubation, 10 μM GSM, 10 μM ATP, kinase 10 nM
[11] = IC50 for inhibition TbGSK3β, preincubated reactions, 30 min preincubation with inhibitor, TbGSK3β, GSM, 10 μM GSM, 10 μM ATP, kinase 10 nM

## Nc1ncnc2c1ncn2[C@@H]1O[C@H](COP(=O)(O)OP(=O)(O)OP(=O)(O)O)[C@@H](O)[C@H]1O [ATP]
TbGSK3β [1]; substrate versus rate plots (Fig 2)
  Km: 21 µM

## Cc1cc(Nc2nc(N[C@@H](C)c3ccc(F)cc3)c(C#N)cc2F)n[nH]1 [AZ960]
TbGSK3β [1]; [8]
  IC50: 4100 ± 1270 nM

## Cc1c[nH]c(-c2cnc(NCCNc3ccc(C#N)cn3)nc2-c2ccc(Cl)cc2Cl)n1 [CT99021]
TbGSK3β [1]; [9]
  IC50: 200 ± 80 nM
TbGSK3β [1]
  Ratio Preinc/no preinc: 0.97

## O=C1Nc2ccc3ncsc3c2/C1=C/Nc1ccc(S(=O)(=O)Nc2ccccn2)cc1 [GW8510]
TbGSK3β [1]; 10 μM ATP, irrespective of preincubation time, four point MMOA assay (Fig 4)
  percent inhibition of activity at lower ATP: 67%
TbGSK3β [1]
  ATP competition following preincubation: competitive
  time dependence: effect of 30 min preincubation on TbGSK3β activity: no effect
TbGSK3β [1]; no preincubation
  ATP competition without preincubation: competed with ATP
TbGSK3β [1]; 100 μM ATP, irrespective of preincubation time, four point MMOA assay (Fig 4)
  percent inhibition of activity at higher ATP: 28%
TbGSK3β [1]; [10]
  IC50: 15.1 nM
TbGSK3β [1]; [11]
  IC50: 14.5 nM
TbGSK3β [2]
  enzyme activity following 100-fold dilution (reversibility): enzyme activity was recovered
[3]; 48 hr, read-out: EC50 in parasite growth assay
  EC50: 119 nM
[3]; read-out: cellular activity against T. brucei
  EC50: 120 nM

## Cc1cc(Nc2cc(CN3CCOCC3)c3nc(C)c(Cc4ccc(Cl)cc4F)n3n2)n[nH]1 [LY278544]
TbGSK3β [1]; [9]
  IC50: 500 ± 120 nM
TbGSK3β [1]
  Ratio Preinc/no preinc: 0.83

## Nc1cccc(-c2cc3c(Oc4cccc(O)c4)ncnc3[nH]2)c1 [TWS119]
TbGSK3β [1]; [9]
  IC50: 600 ± 140 nM
TbGSK3β [1]
  Ratio Preinc/no preinc: 1

## O=c1sn(-c2cccc3ccccc23)c(=O)n1Cc1ccccc1 [Tideglusib]
TbGSK3β [1]
  ATP competition following preincubation: non-competitive behavior
  time dependence: effect of 30 min preincubation on TbGSK3β activity: decreased the enzyme activity following preincubation
TbGSK3β [1]; no preincubation
  ATP competition without preincubation: competed with ATP
TbGSK3β [1]; 80 μM versus 10 μM GSM, 10 μM ATP, tideglusib 0.06 μM (S1 Fig)
  shift in activity at higher concentration of peptide substrate GSM: […]
TbGSK3β [1]; [8]
  IC50: […]
TbGSK3β [1]; [10]
  IC50: […]
TbGSK3β [1]; [11]
  IC50: 43 nM
TbGSK3β [1]; no preincubation, 100 μM ATP, 80 μM GSM, 5-60 min
  progress curves: percent inhibition / rate of product formation with time: […]
TbGSK3β [2]
  enzyme activity following 100-fold dilution (reversibility): […]
[4]
  GI50: 2300 nM
Trypanosomes; 10 μM, 5 x 10^5/mL
  trypanosome proliferation during 6 hour treatment: […]
Trypanosomes; 5 or 10 μM, high trypanosome density 5 x 10^5/mL
  trypanosome growth during 6 hour treatment: markedly slowed trypanosome growth
Trypanosomes; after the initial lag in recovered growth
  growth rate after recovery from exposure: […]
Trypanosomes
  trypanosome proliferation/viability after removal of drug following 6 hour exposure: […]
Trypanosomes; high trypanosome cell densities
  cidal or cytostatic: cytostatic
Human GSK3β
  IC50: […]
[5]
  Blood levels (molar): ~6.7 µM
[6]; Alzheimer's disease and progressive supranuclear palsy
  tolerability in phase II studies: well-tolerated
[6]; escalating doses of up to 1000 mg/day, 30 Alzheimer's patients, 6 weeks
  tolerability in clinical trial: generally well tolerated

## N=C(N)c1ccc(OCCCCCOc2ccc(C(=N)N)cc2)cc1 [pentamidine]
Trypanosomes
  trypanosome proliferation/viability after removal of drug following 6 hour exposure: killed all observed trypanosomes

B1: TbGSK3β (Trypanosoma brucei brucei TREU927) (protein)
chain: T1 sequence (Q388M1 1-352)
notes: Full-length TbGSK3β (Gene DB ID Tb927.10.13780); 6X His (C); made in house; host or cells: BL21 (DE3) E. coli
[7]
  Km: 23 µM
